Measured values from US5981255A, “Alkaline protease, process for the production thereof, use thereof, and microorganism producing the same” (priority 1995, dated 1999).
Where two headings read alike, the source gives them in different places.

System: alkaline protease API-26 produced by Bacillus sp. SD 114 (FERM BP-5736)
Type: biochemical
Method: Add 50 μl of the enzyme solution diluted appropriately to 500 μl of 50 mM Atkins-Pantin borate buffer, pH10, and pre-incubate at 30° C. for 3 to 5 minutes. To this solution, add 500 μl of 2% Hammarsten*s casein solution, pH 10, and after 10 minutes, stop the reaction by adding 2 ml of trichloroacetic acid (TCA) solution (0.032 M TCA solution adjusted to pH 4 with acetate buffer). Leave at 30° C. for more than 10 minutes, and filter with paper filter No.2 (Toyo Roshi). To 1 ml of filtrate add 5 ml of 0.4 M sodium carbonate and 1 ml of phenol reagent diluted 6-fold with water. Leave at 30° C. for 20 minutes for coloring, and then determine the absorbance at 660 nm. The unit of the protease activity is described by the katal. One katal is defined as the activity that the protease reacting with casein as a substrate at pH 10 and at 30° C. produces a degradation product with the absorbance at 660 nm equivalent to one mole of tyrosine.
Effects of various inhibitors against this enzyme were investigated according to the following conditions and procedure:
A solution containing this enzyme at about 20 nkatal/ml in 50 mM borate buffer, pH 10 was prepared. To this solution, EDTA, p-mercuribenzoic acid (PCMV) or phenylmethanesulfonyl fluoride (PMSF) was added at a concentration shown in Table 4. After incubating at 30° C. for 30 minutes, the enzyme activity was determined.

Row | SMILES | Activity (relative activity, enzyme with no inhibitor = 100%) (pH 10) | Activity (relative activity, enzyme with no inhibitor = 100%) (PCMV 1 mM, 50 mM borate buffer pH 10, incubated at 30° C. for 30 minutes, enzyme about 20 nkatal/ml)
1 | O=C(O)CN(CCN(CC(=O)O)CC(=O)O)CC(=O)O [EDTA, ethylenediaminetetraacetic acid] | 99 | –
2 | O=C(O)c1cc[c]([Hg][OH])cc1 [PCMV, p-mercuribenzoic acid] | – | 100%
